Laboratory results: patent US8211662B2, “Nitroreductase enzymatic substrates” (Biomerieux, priority 2007, dated 2012)

Columns and labels:
[1] = system: Bacillus subtilis NCTC 9372; assay: Nitroreductase detection on Columbia agar, colonies read under UV; assay type: cell-based; parameters: key: − = no fluorescence detected; +/− = weak fluorescence; + = medium fluorescence; ++ = strong fluorescence; details: 100 mg/l in Columbia agar, 24 h 37° C., UV 360-365 nm
Method: (§1) A mass of 40 mg of each substrate was dissolved in 4 ml of dimethylformamide (DMF). This solution was entirely taken up in 400 ml of Columbia agar autoclaved beforehand and kept molten at 50° C. The final concentration for each substrate was 100 mg/l.
(§2) Each of the media was distributed into Petri dishes 90 mm in diameter, in a proportion of 20 ml per dish.
(§3) 18 microorganism strains derived from collections and belonging to various species of bacteria and of yeasts were inoculated onto these media by semi-quantitative isolation of 10 μl of a suspension at 0.5 McFarland diluted to 1/20. The media were incubated for 24 hours at 37° C., then the colonies formed were examined visually under UV illumination at 360-365 nm.

[2] = system: Candida albicans ATCC 90028; assay: as above; assay type: cell-based; parameters: key: − = no fluorescence detected; +/− = weak fluorescence; + = medium fluorescence; ++ = strong fluorescence; details: 100 mg/l in Columbia agar, 24 h 37° C., UV 360-365 nm
Method: as §1, §2, §3

[3] = system: Enterobacter cloacae NCTC 11936; assay: as above; assay type: cell-based; parameters: key: − = no fluorescence detected; +/− = weak fluorescence; + = medium fluorescence; ++ = strong fluorescence; details: 100 mg/l in Columbia agar, 24 h 37° C., UV 360-365 nm
Method: as §1, §2, §3

[4] = system: Enterococcus faecalis NCTC 775; assay: as above; assay type: cell-based; parameters: key: − = no fluorescence detected; +/− = weak fluorescence; + = medium fluorescence; ++ = strong fluorescence; details: 100 mg/l in Columbia agar, 24 h 37° C., UV 360-365 nm
Method: as §1, §2, §3

[5] = system: Escherichia coli NCTC 10418; assay: as above; assay type: cell-based; parameters: key: − = no fluorescence detected; +/− = weak fluorescence; + = medium fluorescence; ++ = strong fluorescence; details: 100 mg/l in Columbia agar, 24 h 37° C., UV 360-365 nm
Method: as §1, §2, §3

[6] = system: Listeria monocytogenes NCTC 11994; assay: as above; assay type: cell-based; parameters: key: − = no fluorescence detected; +/− = weak fluorescence; + = medium fluorescence; ++ = strong fluorescence; details: 100 mg/l in Columbia agar, 24 h 37° C., UV 360-365 nm
Method: as §1, §2, §3

[7] = system: Pseudomonas aeruginosa NCTC 10662; assay: as above; assay type: cell-based; parameters: key: − = no fluorescence detected; +/− = weak fluorescence; + = medium fluorescence; ++ = strong fluorescence; details: 100 mg/l in Columbia agar, 24 h 37° C., UV 360-365 nm
Method: as §1, §2, §3

[8] = system: Serratia marcescens NCTC 10211; assay: as above; assay type: cell-based; parameters: key: − = no fluorescence detected; +/− = weak fluorescence; + = medium fluorescence; ++ = strong fluorescence; details: 100 mg/l in Columbia agar, 24 h 37° C., UV 360-365 nm
Method: as §1, §2, §3

[9] = system: Staphylococcus aureus NCTC 6571; assay: as above; assay type: cell-based; parameters: key: − = no fluorescence detected; +/− = weak fluorescence; + = medium fluorescence; ++ = strong fluorescence; details: 100 mg/l in Columbia agar, 24 h 37° C., UV 360-365 nm
Method: as §1, §2, §3

[10] = system: Staphylococcus epidermidis NCTC 11047; assay: as above; assay type: cell-based; parameters: key: − = no fluorescence detected; +/− = weak fluorescence; + = medium fluorescence; ++ = strong fluorescence; details: 100 mg/l in Columbia agar, 24 h 37° C., UV 360-365 nm
Method: as §1, §2, §3

[11] = system: Streptococcus pyogenes NCTC 8306; assay: as above; assay type: cell-based; parameters: key: − = no fluorescence detected; +/− = weak fluorescence; + = medium fluorescence; ++ = strong fluorescence; details: 100 mg/l in Columbia agar, 24 h 37° C., UV 360-365 nm
Method: as §1, §2, §3

[12] = system: Yersinia enterocolitica NCTC 11176; assay: as above; assay type: cell-based; parameters: key: − = no fluorescence detected; +/− = weak fluorescence; + = medium fluorescence; ++ = strong fluorescence; details: 100 mg/l in Columbia agar, 24 h 37° C., UV 360-365 nm
Method: as §1, §2, §3

[13] = system: Acinetobacter baumanii ATCC 19606; assay: as above; assay type: cell-based; parameters: key to Intensity of fluorescence, Acinetobacter baumanii ATCC 19606 / Intensity of the fluorescence, Acinetobacter baumanii ATCC 19606: − = no fluorescence detected; +/− = weak fluorescence; + = medium fluorescence; ++ = strong fluorescence; details: for Intensity of fluorescence, Acinetobacter baumanii ATCC 19606: 100 mg/l in Columbia agar, 24 h 37° C., UV 360-365 nm
Method: as §1, §2, §3

[14] = system: Salmonella typhimurium NCTC 74; assay: as above; assay type: cell-based; parameters: key to Intensity of fluorescence, Salmonella typhimurium NCTC 74 / F: fluorescence (intensity), Salmonella typhimurium NCTC 74 / Intensity of the fluorescence, Salmonella typhimurium NCTC 74: − = no fluorescence detected; +/− = weak fluorescence; + = medium fluorescence; ++ = strong fluorescence; details: for Intensity of fluorescence, Salmonella typhimurium NCTC 74: 100 mg/l in Columbia agar, 24 h 37° C., UV 360-365 nm; for Salmonella typhimurium result with the substrate: table 2
Method: as §1, §2, §3

[15] = system: Morganella morganii 462403 (wild); assay: as above; assay type: cell-based; parameters: key to Intensity of fluorescence, Morganella morganii 462403 / F: fluorescence (intensity), Morganella morganii 462403 (wild) / Intensity of the fluorescence, Morganella morganii 462403 (wild): − = no fluorescence detected; +/− = weak fluorescence; + = medium fluorescence; ++ = strong fluorescence; details: for Intensity of fluorescence, Morganella morganii 462403: 100 mg/l in Columbia agar, 24 h 37° C., UV 360-365 nm
Method: as §1, §2, §3

MRSA NCTC 11939 = assay: as above; assay type: cell-based, Staphylococcus aureus; parameters: key: − = no fluorescence detected; +/− = weak fluorescence; + = medium fluorescence; ++ = strong fluorescence; details: 100 mg/l in Columbia agar, 24 h 37° C., UV 360-365 nm
Method: as §1, §2, §3

[16] = system: Candida glabrata NCPF 3943; assay: as above; assay type: cell-based; parameters: key to Intensity of fluorescence, Candida glabrata NCPF3943 / F: fluorescence (intensity), Candida glabrata NCPF 3943 / Intensity of the fluorescence, Candida glabrata NCPF 3943: − = no fluorescence detected; +/− = weak fluorescence; + = medium fluorescence; ++ = strong fluorescence; details: 100 mg/l in Columbia agar, 24 h 37° C., UV 360-365 nm
Method: as §1, §2, §3

[17] = system: S. aureus (including MRSA) 10 strains; assay: Detection of various strains of S. aureus in the presence of substrates; assay type: cell-based, Staphylococcus aureus; details: for No. of strains detected, S. aureus (including MRSA): 10 strains
S. epidermidis 2 strains = assay: as above; assay type: cell-based
Method: as §1, §2
18 microorganism strains derived from collections and belonging to various species of bacteria and of yeasts were inoculated onto these media by semi-quantitative isolation of 10 μl of a suspension at 0.5 McFarland diluted to 1/20. […]

Staph spp 12 strains = assay: as above; assay type: cell-based
Enterococcus 6 strains = assay: as above; assay type: cell-based

Row | Intensity of fluorescence, Bacillus subtilis NCTC 9372 [1] | Intensity of fluorescence, Enterobacter cloacae NCTC 11936 [3] | Intensity of fluorescence, Enterococcus faecalis NCTC 775 [4] | Intensity of fluorescence, Listeria monocytogenes NCTC 11994 [6] | Intensity of fluorescence, Pseudomonas aeruginosa NCTC 10662 [7] | Intensity of fluorescence, Serratia marcescens NCTC 10211 [8] | Intensity of fluorescence, Streptococcus pyogenes NCTC 8306 [11] | SMILES | Intensity of fluorescence, Candida albicans ATCC 90028 [2] | Intensity of fluorescence, Escherichia coli NCTC 10418 [5] | Intensity of fluorescence, Staphylococcus aureus NCTC 6571 [9] | Intensity of fluorescence, Staphylococcus epidermidis NCTC 11047 [10] | Distinguishing or identifying Staphylococcus aureus strains, in particular MRSA, from most of the other Gram-positive bacterial strains [17] | No. of strains detected, S. aureus (including MRSA) ([17]; 24 h) | No. of strains detected, S. aureus (including MRSA) ([17]; 48 h) | No. of strains detected, S. epidermidis (S. epidermidis 2 strains; 24 h) | No. of strains detected, S. epidermidis (S. epidermidis 2 strains; 48 h) | No. of strains detected, Staph spp (Staph spp 12 strains; 24 h) | No. of strains detected, Staph spp (Staph spp 12 strains; 48 h) | No. of strains detected, Enterococcus (Enterococcus 6 strains; 24 h) | No. of strains detected, Enterococcus (Enterococcus 6 strains; 48 h) | further results
1 | − | + | − | − | − | + | − | O=[N+]([O-])c1ccccc1-c1nc2cc(Cl)ccc2o1 [Substrate 2] | − | +^1 | + | − | make it possible to distinguish or identify the Staphylococcus aureus strains | 10 | 10 | 0 | 2 | 12 | 12 | 0 | 1 | Intensity of fluorescence, Yersinia enterocolitica NCTC 11176 [12]: +/−; Intensity of fluorescence, Acinetobacter baumanii ATCC 19606 [13]: +/−; Distinguishing Pseudomonas aeruginosa from Acinetobacter baumanii ([13]; table 2): make it possible to distinguish Pseudomonas aeruginosa from Acinetobacter baumanii; Intensity of fluorescence, Salmonella typhimurium NCTC 74 [14]: −; Salmonella typhimurium result with the substrate [14]: negative; Intensity of fluorescence, Morganella morganii 462403 [15]: +/−; Intensity of fluorescence, Staphylococcus aureus NCTC 11939 (MRSA NCTC 11939): +; Intensity of fluorescence, Candida glabrata NCPF3943 [16]: −
2 |  |  |  |  |  |  |  | Cc1ccc2oc(-c3ccccc3[N+](=O)[O-])nc2c1 [Substrate 3] |  |  |  |  | make it possible to distinguish or identify the Staphylococcus aureus strains | 10 | 10 | 0 | 2 | 12 | 12 | 0 | 1 | 
3 |  |  |  |  |  |  |  | O=[N+]([O-])c1ccc(Cl)cc1-c1nc2ccccc2o1 [Substrate 4] |  |  |  |  | make it possible to distinguish or identify the Staphylococcus aureus strains | 10 | 10 | 0 | 2 | 12 | 12 | 0 | 1 | 
4 | − | + | − | − | − | + | − | COc1cc(-c2nc3ccccc3o2)c([N+](=O)[O-])cc1OC [Substrate 6] | − | + | + | − | make it possible to distinguish or identify the Staphylococcus aureus strains | 10 | 10 | 0 | 2 | 12 | 12 | 0 | 1 | Intensity of fluorescence, Yersinia enterocolitica NCTC 11176 [12]: −; Intensity of fluorescence, Acinetobacter baumanii ATCC 19606 [13]: −; Intensity of fluorescence, Salmonella typhimurium NCTC 74 [14]: −; Salmonella typhimurium result with the substrate [14]: negative; Intensity of fluorescence, Morganella morganii 462403 [15]: +/−; Intensity of fluorescence, Staphylococcus aureus NCTC 11939 (MRSA NCTC 11939): +; Intensity of fluorescence, Candida glabrata NCPF3943 [16]: −
5 |  |  |  |  |  |  |  | CN1CCN(c2ccc([N+](=O)[O-])c(-c3nc4ccccc4o3)c2)CC1 [Substrate 8] |  |  |  |  | make it possible to distinguish or identify the Staphylococcus aureus strains | 10 | 10 | 0 | 2 | 12 | 12 | 0 | 1 | 
6 | − | − | − | − | − | − | − | O=[N+]([O-])c1ccccc1-c1nc2ccccc2n1CCc1ccccc1 [Substrate 12] | − | − | − | − |  |  |  |  |  |  |  |  |  | Intensity of fluorescence, Yersinia enterocolitica NCTC 11176 [12]: −; Intensity of fluorescence, Acinetobacter baumanii ATCC 19606 [13]: −; Intensity of fluorescence, Salmonella typhimurium NCTC 74 [14]: −; Salmonella typhimurium result with the substrate [14]: negative; Intensity of fluorescence, Morganella morganii 462403 [15]: +/−; Specificity of the substrate ([15]; table 2): specific for Morganella morganii; Intensity of fluorescence, Staphylococcus aureus NCTC 11939 (MRSA NCTC 11939): −; Intensity of fluorescence, Candida glabrata NCPF3943 [16]: −
7 |  |  |  |  |  |  |  | O=[N+]([O-])c1ccc(Cl)cc1-c1nc2ccccc2s1 [Substrate 21] |  |  |  |  | make it possible to distinguish or identify the Staphylococcus aureus strains | 10 | 10 | 0 | 2 | 12 | 12 | 0 | 1 | 
